Values quoted from earlier work, collected in US7521440B2, “Targeted oxidative therapeutic formulation” (Torquin, LLC, priority 2001, dated 2009).

Key:
[1] = test system: E. coli; details: increasing peroxide concentration ex-vivo in rabbit or human blood
[2] = test system: peroxide-sensitive E. coli; details: infused into the blood of infected rabbits

Structure (SMILES): OO [hydrogen peroxide, Hydrogen peroxide]
- direct bactericidal activity [1]: no evidence of direct bactericidal activity
- bactericidal effect [2]: no bactericidal effect
